Experimental data published in patent publication US20240190890A1, “MK2 INHIBITORS AND USES THEREOF” (Bristol-Myers Squibb Company, priority 2022, published 2024).

What follows are compounds tested against p38a activated, mitogen-activated protein kinase-activated protein kinase 2 (MAPKAP-K2 or MK2) enzyme (Homo sapiens (Human), UniProt P49137) (assay: MK2 Omnia continuous-read kinase assay for compound potency). Conditions: [MK-2]=0.4 nM, [ATP]=10 μM, [ST3-Sox]=10 μM; room temperature.
Assay type: biochemical
Outline: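 p38a-activated MK2 (0.4 nM) with 10 μM ATP (apparent Km) and 10 μM S/T3-Sox peptide in Tris pH 7.5 buffer with MgCl2, EGTA and DTT. Fluorescence (ex360/em485) read continuously for 120 min at room temperature. IC50 from initial linear slopes; apparent kinact/KI from kobs of exponential progress-curve fits.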

p38a activated, mitogen-activated protein kinase-activated protein kinase 2 (MAPKAP-K2 or MK2) enzyme, sequence (P49137 whole entry): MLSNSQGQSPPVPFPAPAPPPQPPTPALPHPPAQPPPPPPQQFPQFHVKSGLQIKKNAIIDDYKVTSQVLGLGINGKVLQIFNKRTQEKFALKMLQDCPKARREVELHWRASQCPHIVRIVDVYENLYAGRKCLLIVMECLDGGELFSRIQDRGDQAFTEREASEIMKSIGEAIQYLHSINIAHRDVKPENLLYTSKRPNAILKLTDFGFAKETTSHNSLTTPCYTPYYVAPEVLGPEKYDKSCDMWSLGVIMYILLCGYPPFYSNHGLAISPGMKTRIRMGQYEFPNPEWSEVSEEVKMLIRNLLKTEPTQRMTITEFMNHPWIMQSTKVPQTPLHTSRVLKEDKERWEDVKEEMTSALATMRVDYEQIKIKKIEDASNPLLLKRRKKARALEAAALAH

Going from C=Cc1cc(-c2ccc3c(ccc4sc5c(c43)NC[C@@H](C)NC5=O)n2)c(CN2CC3(COC3)C2)cn1 [Example I-263, (R)-3-(5-((2-oxa-6-azaspiro[3.3]heptan-6-yl)methyl)-2-vinylpyridin-4-yl)-10-methyl-9,10,11,12-tetrahydro-8H-[1,4]diazepino[5′,6′:4,5]thieno[3,2-f]quinolin-8-one] to C=Cc1cc(-c2ccc3c(ccc4sc5c(c43)NC[C@@H](C)NC5=O)n2)c(CN2CCOCC2)cn1 [Example I-153, (R)-10-methyl-3-(5-(morpholinomethyl)-2-vinylpyridin-4-yl)-9,10,11,12-tetrahydro-8H-[1,4]diazepino[5′,6′:4,5]thieno[3,2-f]quinolin-8-one], the IC50 falls from 47 nM to 23 nM (2-fold).

First: C#Cc1cc(-c2ccc3c(ccc4sc5c(c43)NC[C@@H](C)NC5=O)n2)nc(COCC)n1 [Example I-39, (R)-3-(2-(ethoxymethyl)-6-ethynylpyrimidin-4-yl)-10-methyl-9,10,11,12-tetrahydro-8H-[1,4]diazepino[5′,6′:4,5]thieno[3,2-f]quinolin-8-one]
Second: C#Cc1ncc(COCC)c(-c2ccc3c(ccc4sc5c(c43)NC[C@@H](C)NC5=O)n2)n1 [Example I-12, (R)-3-(5-(ethoxymethyl)-2-ethynylpyrimidin-4-yl)-10-methyl-9,10,11,12-tetrahydro-8H-[1,4]diazepino[5′,6′:4,5]thieno[3,2-f]quinolin-8-one]
The IC50 of the first is 11-fold lower: 8 nM for the first, 87 nM for the second. The first is the more potent here.

C/C=C/c1cc(-c2ccc3c(ccc4sc5c(c43)NC[C@@H](C)NC5=O)n2)ccn1 [Example I-113, (R,E)-10-methyl-3-(2-(prop-1-en-1-yl)pyridin-4-yl)-9,10,11,12-tetrahydro-8H-[1,4]diazepino[5′,6′:4,5]thieno[3,2-f]quinolin-8-one] and C=Cc1cc(-c2ccc3c(ccc4sc5c(c43)NC[C@@H](C)NC5=O)n2)cc(Cl)n1 [Example I-72, (R)-3-(2-chloro-6-vinylpyridin-4-yl)-10-methyl-9,10,11,12-tetrahydro-8H-[1,4]diazepino[5′,6′:4,5]thieno[3,2-f]quinolin-8-one] are within 1.5-fold of each other in IC50: 53 nM for the first, 58 nM for the second.

Going from C#Cc1cc(-c2ccc3c(ccc4sc5c(c43)NC[C@@H](C)NC5=O)n2)ncn1 [Example I-38, (R)-3-(6-ethynylpyrimidin-4-yl)-10-methyl-9,10,11,12-tetrahydro-8H-[1,4]diazepino[5′,6′:4,5]thieno[3,2-f]quinolin-8-one] to C[C@@H]1CNc2c(sc3ccc4nc(-c5cc(Cl)ncn5)ccc4c23)C(=O)N1 [Example I-11, (R)-3-(6-chloropyrimidin-4-yl)-10-methyl-9,10,11,12-tetrahydro-8H-[1,4]diazepino[5′,6′:4,5]thieno[3,2-f]quinolin-8-one], the IC50 falls from 5 nM to 2 nM (2.5-fold).

First: C[C@@H]1CNc2c(sc3ccc4nc(-n5cnc(Cl)n5)ccc4c23)C(=O)N1 [Example I-210, (R)-3-(3-chloro-1H-1,2,4-triazol-1-yl)-10-methyl-9,10,11,12-tetrahydro-8H-[1,4]diazepino[5′,6′:4,5]thieno[3,2-f]quinolin-8-one]
Second: C[C@@H]1CNc2c(sc3ccc4nc(-c5ccnc(Cl)c5F)ccc4c23)C(=O)N1 [Example I-221, (R)-3-(2-chloro-3-fluoropyridin-4-yl)-10-methyl-9,10,11,12-tetrahydro-8H-[1,4]diazepino[5′,6′:4,5]thieno[3,2-f]quinolin-8-one]
The IC50 of the first is 2.3-fold lower: 91 nM for the first, 212 nM for the second. The first is the more potent here.

Compared with C#Cc1cc(-c2ccc3c(ccc4sc5c(c43)NC[C@@H](C)NC5=O)n2)c(C)nn1 [Example I-170, (R)-3-(6-ethynyl-3-methylpyridazin-4-yl)-10-methyl-9,10,11,12-tetrahydro-8H-[1,4]diazepino[5′,6′:4,5]thieno[3,2-f]quinolin-8-one], C#Cc1cc(-c2ccc3c(ccc4sc5c(c43)NC[C@@H](C)NC5=O)n2)c(N(C)C)nn1 [Example I-105, (R)-3-(3-(dimethylamino)-6-ethynylpyridazin-4-yl)-10-methyl-9,10,11,12-tetrahydro-8H-[1,4]diazepino[5′,6′:4,5]thieno[3,2-f]quinolin-8-one] is 6.6-fold higher in IC50: 18 nM for the first, 118 nM for the second.

Compared with C=Cc1cc(-c2ccc3c(ccc4sc5c(c43)NC[C@@H](C)NC5=O)n2)c(CC)cn1 [Example I-195, (R)-3-(5-ethyl-2-vinylpyridin-4-yl)-10-methyl-9,10,11,12-tetrahydro-8H-[1,4]diazepino[5′,6′:4,5]thieno[3,2-f]quinolin-8-one], C=Cc1cc(-c2ccc3c(ccc4sc5c(c43)NC[C@@H](C)NC5=O)n2)c(COC)cn1 [Example I-253, (R)-3-(5-(methoxymethyl)-2-vinylpyridin-4-yl)-10-methyl-9,10,11,12-tetrahydro-8H-[1,4]diazepino[5′,6′:4,5]thieno[3,2-f]quinolin-8-one] is 2.2-fold lower in IC50: 13 nM for the first, 6 nM for the second. The second is the more potent here.

Compared with C/C=C/c1ncc(F)c(-c2ccc3c(ccc4sc5c(c43)NC[C@@H](C)NC5=O)n2)n1 [Example I-45, (R,E)-3-(5-fluoro-2-(prop-1-en-1-yl)pyrimidin-4-yl)-10-methyl-9,10,11,12-tetrahydro-8H-[1,4]diazepino[5′,6′:4,5]thieno[3,2-f]quinolin-8-one], C=C(C)c1ncc(F)c(-c2ccc3c(ccc4sc5c(c43)NC[C@@H](C)NC5=O)n2)n1 [Example I-47, (R)-3-(5-fluoro-2-(prop-1-en-2-yl)pyrimidin-4-yl)-10-methyl-9,10,11,12-tetrahydro-8H-[1,4]diazepino[5′,6′:4,5]thieno[3,2-f]quinolin-8-one] is 2.7-fold higher in IC50: 160 nM for the first, 429 nM for the second.

Compared with C#Cc1cc(-c2ccc3c(ccc4sc5c(c43)NC[C@@H](C)NC5=O)n2)c(OCCN2CCOCC2)nn1 [Example I-134, (R)-3-(6-ethynyl-3-(2-morpholinoethoxy)pyridazin-4-yl)-10-methyl-9,10,11,12-tetrahydro-8H-[1,4]diazepino[5′,6′:4,5]thieno[3,2-f]quinolin-8-one], C#Cc1cc(-c2ccc3c(ccc4sc5c(c43)NC[C@@H](C)NC5=O)n2)c(OCCN2CCCC2)nn1 [Example I-120, (R)-3-(6-ethynyl-3-(2-(pyrrolidin-1-yl)ethoxy)pyridazin-4-yl)-10-methyl-9,10,11,12-tetrahydro-8H-[1,4]diazepino[5′,6′:4,5]thieno[3,2-f]quinolin-8-one] is 3-fold lower in IC50: 137 nM for the first, 45 nM for the second.

Compared with Cc1cnc(CC#N)cc1-c1ccc2c(ccc3sc4c(c32)NC[C@@H](C)NC4=O)n1 [Example I-267, (R)-2-(5-methyl-4-(10-methyl-8-oxo-9,10,11,12-tetrahydro-8H-[1,4]diazepino[5′,6′:4,5]thieno[3,2-f]quinolin-3-yl)pyridin-2-yl)acetonitrile], C[C@@H]1CNc2c(sc3ccc4nc(-c5cc(Cl)ncc5C#N)ccc4c23)C(=O)N1 [Example I-160, (R)-6-chloro-4-(10-methyl-8-oxo-9,10,11,12-tetrahydro-8H-[1,4]diazepino[5′,6′:4,5]thieno[3,2-f]quinolin-3-yl)nicotinonitrile] is 330-fold lower in IC50: 1000 nM for the first, 3 nM for the second. The second is the more potent here.

Compared with C=Cc1cc(-c2ccc3c(ccc4sc5c(c43)NC[C@@H](C)NC5=O)n2)c(OCCN2CCOCC2)nn1 [Example I-133, (R)-10-methyl-3-(3-(2-morpholinoethoxy)-6-vinylpyridazin-4-yl)-9,10,11,12-tetrahydro-8H-[1,4]diazepino[5′,6′:4,5]thieno[3,2-f]quinolin-8-one], C=Cc1cc(-c2ccc3c(ccc4sc5c(c43)NC[C@@H](C)NC5=O)n2)cc(N2CCOCC2)n1 [Example I-156, (R)-10-methyl-3-(2-morpholino-6-vinylpyridin-4-yl)-9,10,11,12-tetrahydro-8H-[1,4]diazepino[5′,6′:4,5]thieno[3,2-f]quinolin-8-one] is 11-fold lower in IC50: 255 nM for the first, 23 nM for the second.

Going from [2H]C([2H])([2H])C(O)(c1cnc(C=C)cc1-c1ccc2c(ccc3sc4c(c32)NC[C@@H](C)NC4=O)n1)C([2H])([2H])[2H] [Example I-258, (R)-3-(5-(2-hydroxypropan-2-yl-1,1,1,3,3,3-d6)-2-vinylpyridin-4-yl)-10-methyl-9,10,11,12-tetrahydro-8H-[1,4]diazepino[5′,6′:4,5]thieno[3,2-f]quinolin-8-one] to C=Cc1csc(-c2ccc3c(ccc4sc5c(c43)NC[C@@H](C)NC5=O)n2)n1 [Example I-149, (R)-10-methyl-3-(4-vinylthiazol-2-yl)-9,10,11,12-tetrahydro-8H-[1,4]diazepino[5′,6′:4,5]thieno[3,2-f]quinolin-8-one], the IC50 falls from 1000 nM to 95 nM (11-fold). The second is the more potent here.

First: C#Cc1cncc(-c2ccc3c(ccc4sc5c(c43)NC[C@@H](C)NC5=O)n2)c1 [Example I-83, (R)-3-(5-ethynylpyridin-3-yl)-10-methyl-9,10,11,12-tetrahydro-8H-[1,4]diazepino[5′,6′:4,5]thieno[3,2-f]quinolin-8-one]
Second: C[C@@H]1CNc2c(sc3ccc4nc(-c5cc(CO)nc(Cl)n5)ccc4c23)C(=O)N1 [Example I-84, (R)-3-(2-chloro-6-(hydroxymethyl)pyrimidin-4-yl)-10-methyl-9,10,11,12-tetrahydro-8H-[1,4]diazepino[5′,6′:4,5]thieno[3,2-f]quinolin-8-one]
The IC50 of the first is 2.1-fold higher: 83 nM for the first, 39 nM for the second. The second is the more potent here.

First: C=Cc1ncc(OC)c(-c2ccc3c(ccc4sc5c(c43)NC[C@@H](C)NC5=O)n2)n1 [Example I-32, (R)-3-(5-methoxy-2-vinylpyrimidin-4-yl)-10-methyl-9,10,11,12-tetrahydro-8H-[1,4]diazepino[5′,6′:4,5]thieno[3,2-f]quinolin-8-one]
Second: C[C@@H]1CNc2c(sc3ccc4nc(-c5cc(Cl)nc(N6CCN(C)CC6)n5)ccc4c23)C(=O)N1 [Example I-17, (R)-3-(6-chloro-2-(4-methylpiperazin-1-yl)pyrimidin-4-yl)-10-methyl-9,10,11,12-tetrahydro-8H-[1,4]diazepino[5′,6′:4,5]thieno[3,2-f]quinolin-8-one]
The IC50 of the first is 1.8-fold higher: 245 nM for the first, 137 nM for the second.
